Here are results for 13 compounds from ChEMBL document CHEMBL1773071, “Development of tricyclic hydroxy-1H-pyrrolopyridine-trione containing HIV-1 integrase inhibitors” (Bioorg Med Chem Lett, 2011).

Series [1] addresses T1, Human immunodeficiency virus type 1 integrase (Human immunodeficiency virus 1, UniProt Q7ZJM1). Put plainly: Inhibition of HIV1 recombinant integrase strand transfer activity expressed in Escherichia coli after 30 mins using [32P]-labeled oligonucleotide as a substrate by densitometric analysis.
In series [2] the target is T1, Human immunodeficiency virus type 1 integrase. The series is described as follows: Inhibition of HIV1 recombinant integrase 3'-processing activity expressed in Escherichia coli after 30 mins using [32P]-labeled oligonucleotide as a substrate by densitometric analysis.
A further series relates to HOS. The series is described as follows: Cytotoxicity against human HOS cells assessed as ATP level after 48 hrs by luciferase reporter assay. In kind it is cell-based. In general terms: Reporter assays use an easily measured gene product as a stand-in for the process of interest.
The subject of series [3] is Human immunodeficiency virus 1. Put plainly: Resistant fold, ratio of EC50 for HIV1 harboring integrase G140S/Q148H mutant to EC50 for HIV1 harboring wild-type integrase. It is filed as functional.
The target of series [4] is T1, Human immunodeficiency virus type 1 integrase. The series is described as follows: Inhibition of HIV1 recombinant integrase 3'-processing activity expressed in Escherichia coli after 60 mins using [32P]-labeled oligonucleotide as a substrate by densitometric analysis in presence of cofactor manganese.
The test system of series [5] is Human immunodeficiency virus 1. The series is described as follows: Resistant fold, ratio of EC50 for HIV1 harboring integrase N155H mutant to EC50 for HIV1 harboring wild-type integrase. In kind it is functional.
Series [6] has as its target T1, Human immunodeficiency virus type 1 integrase. The series is described as follows: Inhibition of HIV1 recombinant integrase strand transfer activity expressed in Escherichia coli after 60 mins using [32P]-labeled oligonucleotide as a substrate by densitometric analysis in presence of cofactor manganese.
Series [7] has the same target. The series is described as follows: Inhibition of HIV1 recombinant integrase 3'-processing activity expressed in Escherichia coli after 60 mins using [32P]-labeled oligonucleotide as a substrate by densitometric analysis in presence of cofactor magnesium.
Series [8] relates to Human immunodeficiency virus 1. Put plainly: Resistant fold, ratio of EC50 for HIV1 harboring integrase Y143R mutant to EC50 for HIV1 harboring wild-type integrase. In kind it is functional.
The test system of series [9] is Human immunodeficiency virus 1. The series is described as follows: Antiviral activity against HIV1 harboring wild-type integrase infected in human HOS cells. In kind it is functional, organism-based. The note with it: Human immunodeficiency virus 1, HOS.
Series [10] has as its target T1, Human immunodeficiency virus type 1 integrase. The series is described as follows: Inhibition of HIV1 recombinant integrase strand transfer activity expressed in Escherichia coli after 60 mins using [32P]-labeled oligonucleotide as a substrate by densitometric analysis in presence of cofactor magnesium.

Some results are limits rather than exact numbers.

T1 sequence (Q7ZJM1 whole entry): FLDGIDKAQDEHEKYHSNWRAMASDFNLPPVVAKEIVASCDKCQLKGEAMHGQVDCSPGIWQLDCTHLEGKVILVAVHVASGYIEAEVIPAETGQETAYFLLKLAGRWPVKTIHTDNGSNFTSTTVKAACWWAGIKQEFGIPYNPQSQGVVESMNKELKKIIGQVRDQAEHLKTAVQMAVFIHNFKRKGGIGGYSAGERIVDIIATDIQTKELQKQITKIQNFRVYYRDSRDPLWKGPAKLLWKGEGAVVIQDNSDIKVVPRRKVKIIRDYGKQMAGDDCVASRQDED

For orientation: IC50 means the point on the concentration scale where inhibition reaches its midpoint. For the compound `O=C1c2c(c3n(c(=O)c2O)CCC3)C(=O)N1Cc1ccc(F)c(Cl)c1`, the IC50 in series [1] was 10.9 µM; in [2], over 111 µM.
One may read the CC50 as the concentration giving 50% cytotoxicity. Usually EC50 stands for the concentration needed to bring the measured effect to its halfway point. A lower EC50 goes with greater potency. For the compound `O=C1c2c(c3n(c(=O)c2O)CCCC3)C(=O)N1Cc1ccc(F)c(Cl)c1`, in the series with HOS, the CC50 turned out to be 291 µM. The results for the “Ratio EC50” value in series [3], in series [5] and in [8] were 2, 3 and 4, respectively. Further, the concentration for half-maximal inhibition (IC50) in series [4] is 28 µM; in series [6] it was 1.2 µM; in [7] it was over 111 µM; in series [1], 9.1 µM; in series [2] it was over 111 µM; in series [10], 9.1 µM. This compound also showed a concentration giving a half-maximal response (EC50) in series [9] of 61 µM.
For the compound `O=C1c2c(c3n(c(=O)c2O)CCCCC3)C(=O)N1Cc1ccc(F)c(Cl)c1`, the IC50 is 6 µM in series [1] and over 111 µM in series [2].
On to `O=C1c2c(c3n(c(=O)c2O)CCCCCC3)C(=O)N1Cc1ccc(F)c(Cl)c1`, for which the IC50 in series [1] is 5.4 µM; in series [2] it was over 111 µM.
In the same order, the values of `O=C1c2c(c3n(c(=O)c2O)CCCCC3)C(=O)N1Cc1ccc(F)cc1` are 10.4 µM and over 111 µM.
In the same order, the values of `O=C1c2c(c3n(c(=O)c2O)CCCCC3)C(=O)N1Cc1ccc(F)c(F)c1` are 6.01 µM and over 111 µM.
Consider `O=C1c2c(c3n(c(=O)c2O)CCCCC3)C(=O)N1Cc1cccc(Cl)c1F`, for which the 50% inhibitory concentration (IC50) was 9.2 µM in [1] and over 111 µM in series [2].
On to `O=C1c2c(c3n(c(=O)c2O)CCCCC3)C(=O)N1Cc1ccccc1`, for which the IC50 in series [1] and in series [2] was over 111 µM each time.
As to `O=C1c2c(c3n(c(=O)c2O)CCCCC3)C(=O)N1Cc1cccc2ccccc12`, the 50% inhibitory concentration (IC50) in [1] is 90.5 µM; in [2] it was over 111 µM.
Compound `Cc1nnc(C(=O)NC(C)(C)c2nc(C(=O)NCc3ccc(F)cc3)c(O)c(=O)n2C)o1` showed an EC50 in [9] of 0.004 µM.
In the case of `O=C1c2ccc(O)c(O)c2C(=O)N1Cc1ccc(F)cc1`, in series [1], the concentration for half-maximal inhibition (IC50) amounted to 5.3 µM.
Same read-out and setting: then `O=C1c2ccc(O)c(O)c2C(=O)N1Cc1cccc(Cl)c1F`, with 1.7 µM; and `O=C1c2ccc(O)c(O)c2C(=O)N1Cc1ccc(F)c(F)c1`, with 0.14 µM.
